The record followed here is patent publication US20210137809A1, “COSMETIC COMPOSITION FOR WRINKLE REDUCTION OR ANTI-INFLAMMATION, CONTAINING SUBSTANCE P” (Biosolution Co., Ltd, priority 2017, published 2021).

In assay [1] the test system is collagen synthesis in Human skin fibroblasts. The assay is described as follows: Collagen synthesis effect in skin fibroblasts (Procollagen Type1-Peptide EIA). It is filed as cell-based. To be noted: 24-hr culture, maximum increase (up to) relative to PBS control, FIG. 3. On the procedure: (§1) The collagen synthesis effect of the composition containing substance P was examined in skin fibroblasts. Human skin fibroblasts were put in a 96-well plate at a density of 3×10^4 CFU/well, and incubated at 37° C. for 24 hours. The medium (FGM, Lonza, USA) was removed, and then 180 μL of a fresh medium was dispensed into each well, and 20 μL of the composition containing substance P or substance P dissolved in a phosphate buffer solution (PBS) was added thereto, followed by incubation at 37° C. for 24 hours. In this regard, the concentration of the composition or the substance P added was determined such that its final concentration became a desired concentration, taking into consideration the total volume of the medium. After 24-hr culture, the supernatant was collected, and the amount of collagen in the medium was measured using a Procollagen Type1-Peptide (PIP) EIA kit (TaKaRa, Japan).
The difference was statistically significant. Statistical analysis was performed using Student's t-test, and the effects of experimental groups (*p<0.05, **p<0.01) relative to the control (phosphate buffer solution-treated group) and the effects of substance P dissolved in phosphate buffer solution and the composition of the present invention (#p<0.05, ##<0.01) were compared.

A further assay has as its system collagenase (MMP-1). The assay is described as follows: Collagenase (MMP-1) inhibition effect in skin fibroblasts (Human total MMP-1 kit). Type of assay: cell-based. To be noted: 24-hr culture, maximum decrease (up to) relative to PBS control, FIG. 4. On the procedure: as §1, with “collagenase (MMP-1) inhibition” for “collagen synthesis”, “including” for “containing”, “collagenase (MMP-1)” for “collagen”, “Human total MMP-1” for “Procollagen Type1-Peptide (PIP) EIA”, “(R&D systems, USA).” for “(TaKaRa, Japan).”
The difference was statistically significant. Statistical analysis was performed using Student's t-test, and the MMP-1 production of each experimental group (*p<0.05, **p<0.01) relative to the control (phosphate buffer solution-treated group) and the MMP-1 productions by substance P dissolved in phosphate buffer solution and the composition of the present invention (#p<0.05, ##p<0.01) were compared.

In assay [2] the test system is inflammatory cytokine IL-6. The assay is described as follows: Inflammatory cytokine IL-6-reducing effect in LPS-treated Raw 264.7 cells. Type of assay: cell-based, mouse. The note with it: 100 ng/mL LPS, 24-hr culture, maximum decrease (up to) relative to LPS-treated group, FIG. 5. How it is done:
The inflammatory cytokine IL-6-reducing effect of the composition including substance P was examined in Raw 264.7 cells which are mouse macrophages. […] were put in a 24-well plate at a density of 4×10^5 CFU/well, and incubated at 37° C. for 24 hours. A growth medium for Raw 264.7 cells was prepared by mixing DMEM (Welgene, Korea) with 200 mM of L-glutamine (Gibco, USA). After 24-hr culture, the medium was removed, and then 1 mL of a fresh medium was dispensed into each well. To induce intracellular inflammation, 100 ng/mL of LPS (Sigma, USA) was treated thereto, and simultaneously, the composition including substance P or substance P dissolved in a phosphate buffer solution (PBS) was dispensed thereto such that the final volume was 2 mL/well, followed by incubation at 37° C. for 24 hours. In this regard, the concentration of the composition or the substance P added was determined such that its final concentration became a desired concentration, taking into consideration the total volume of the medium. After 24-hr culture, the supernatant was collected, and the amount of inflammatory cytokine IL-6 in the medium was measured by mouse IL-6 immunoassay (R&D systems, USA).
Significant IL-6 reduction was determined using Student's t-test by comparing the IL-6 amount practically measured in the experimental group with that of the LPS-treated group (*p<0.05, **p<0.01).

The test system of another assay is nitric oxide (NO). The assay is described as follows: Nitric oxide (NO)-reducing effect in LPS-treated Raw 264.7 cells (Griess reagent). Type of assay: cell-based, mouse. To be noted: 100 ng/mL LPS, 24-hr culture, maximum decrease (up to), LPS only = 100%, FIG. 6. How it is done: In inflammatory environments, the nitric oxide (NO)-reducing effect of the composition including substance P was examined in Raw 264.7 cells which are mouse macrophages. […] were put in a 24-well plate at a density of 4×10^5 CFU/well, and incubated at 37° C. for 24 hours. A growth medium for Raw 264.7 cells was prepared by mixing DMEM (Welgene, Korea) with 200 mM of L-glutamine (Gibco, USA). After 24-hr culture, the medium was removed, and then 1 mL of a fresh medium was dispensed into each well. […] In this regard, the concentration of the composition or the substance P added was determined such that its final concentration became a desired concentration, taking into consideration the total volume of the medium.
After 24-hr culture, the supernatant was collected, and 100 μL thereof was added to a 96-well plate, and an equal volume of Griess reagent (Sigma, USA) was added thereto, and the plate was left at room temperature for 15 minutes. Then, absorbance at 540 nm was measured. […] The production amount of nitric oxide (NO) in the group treated with LPS only was regarded as 100%, and the amount of nitric oxide (NO) in the medium was determined.
Significant NO reduction was determined using Student's t-test by comparing the NO amount practically measured in the experimental group with that of the LPS-treated group (*p<0.05, **p<0.01).
(In general: Nitrite, measured by Griess reagent, commonly stands in for NO production.)

As to “Arg-Pro-Lys-Pro-Gln-Gln-Phe-Phe-Gly-Leu-Met-NH2 [substance P]”, the collagen synthesis increase result in assay [1] was “about 20%”. In the assay with collagenase (MMP-1), the “collagenase (MMP-1) production decrease” value is given as “about 20%”. Further, the “decrease of amount of IL-6 induced by LPS” value in assay [2] is given as “about 20%”. Further, the “decrease of amount of NO induced by LPS” value in the assay on nitric oxide (NO) was “about 10%”.
